# Laboratory results reported in BindingDB's records for doi:10.7270/Q23F4N3R (Burnham Center For Chemical Genomics, 2011).
# Test: HK1 enzyme inhibitors – biochemical, selectivity assay for HKDC1 inhibitor project, dose response (AID 504763)
# [1] = inactive by the depositor's call
smiles,measurement,setting,value
O=C(O)[C@@H](c1ccccc1)N1Cc2ccccc2C1=O,IC50,,> 80 µM
CCOC(=O)c1ccc(NC2=CC(=O)C(=O)c3ccccc32)cc1,IC50,,> 80 µM
CCc1ccc(S(=O)(=O)N=C2C=C(Sc3nnc[nH]3)C(=O)c3ccccc32)cc1,IC50,,2.85 µM
COC(=O)c1ccccc1NC1=CC(=NS(=O)(=O)c2ccc(C(=O)O)cc2)c2ccccc2C1=O,IC50,,5.77 µM
O=C(O)c1ccc(S(=O)(=O)N=C2C=C(Nc3ccccc3F)C(=O)c3ccccc32)cc1,IC50,,6.02 µM
CCc1ccc(S(=O)(=O)N=C2C=C(Nc3ccc(C(=O)O)cc3)C(=O)c3ccccc32)cc1,IC50,,6.89 µM
NC1=CC(=O)C(=O)c2ccccc21,IC50,[1],57.8 µM
CC(=O)N(C1=C(Cl)C(=O)c2ccccc2C1=O)C1CCCCC1,IC50,,10.2 µM
C=CCN1C=C2C(=O)C(C)(OC(=O)CCC(=O)OC)C(=O)C(Br)=C2C=C1c1ccc(OC)cc1 (stereo not drawn),IC50,,> 80 µM
Cc1cccc(-n2c3nc(=O)[nH]c(=O)c-3cc3cc([N+](=O)[O-])ccc32)c1,IC50,,> 80 µM
Cc1ccc(/N=C/C2=CC(Cc3ccccc3Cl)C=C([N+](=O)[O-])C2=O)c(O)c1 (stereo not drawn),IC50,,> 80 µM
Oc1ccc(CN=Nc2ncc(Br)cn2)c(O)c1,IC50,,> 80 µM
O=c1c2ccccc2nc(/C=C/c2cccnc2)n1CCc1ccccc1,IC50,,> 80 µM
Cc1[nH]c2ccccc2c1C1=CC(=O)C=CC1=O,IC50,,9.71 µM
COC(=O)c1ccc(NC(=O)CSc2n[nH]c(-c3ccncc3)n2)cc1,IC50,[1],22.5 µM
CCOC(=O)c1ccc(NC(=O)CSc2n[nH]c(-c3ccncc3)n2)cc1,IC50,,10.5 µM
COc1ccc(Cn2c(O)c3[nH]cccc-3c2=O)cc1,IC50,,> 80 µM
Cc1cc(C)n2nc(SCc3nnc(SCc4ccccc4Cl)s3)nc2n1,IC50,[1],23.2 µM
O=C(CSc1nnc(CCCN2C(=O)c3cccc4cccc(c34)C2=O)n1-c1ccccc1)N1CCCCC1,IC50,,9.74 µM
Cc1ccc(N2C(=O)NC(=O)C(=Cc3cc(C)n(-c4sc5c(c4C#N)CCCC5)c3C)C2=O)cc1,IC50,,> 80 µM
Cc1ccc(-n2c3nc(=O)[nH]c(=O)c-3cc3cc([N+](=O)[O-])ccc32)cc1C,IC50,[1],36.6 µM
Cc1ccc2cc(CCNC(=O)c3ccc(S(=O)(=O)N4CCCCC4)cc3)c(O)nc2c1,IC50,,6.04 µM
Cc1nc2c(c(=O)c3ccccc3n2C)c(=O)n1-c1ccccc1,IC50,,15.3 µM
O=S(=O)(O)c1ccc(O)c2cc(Nc3ccccc3)ccc12,IC50,,> 80 µM
NC1=C(Br)C(=O)c2ncccc2C1=O,IC50,,13.8 µM
CCCC(=O)NC1=C(Cl)C(=O)c2ccccc2C1=O,IC50,,3.06 µM
CC(Nc1cc(O)c2cccnc2c1O)C(=O)c1ccccc1 (stereo not drawn),IC50,,75.1 µM
"CN1c2ccc(C=O)c3c(C=O)ccc(c23)N(C)C1(C)C [1,2,2,3-tetramethyl-2,3-dihydro-1H-perimidine-6,7-dicarbaldehyde]",IC50,,18.8 µM
"Cc1ccc(C)c(-n2nnnc2Sc2nnnn2-c2ccccc2)c1 [1-(2,5-dimethylphenyl)-5-(1-phenyltetrazol-5-yl)sulfanyltetrazole]",IC50,,> 80 µM
"O=C1C(Cl)=C(N2CCC(C(=O)O)CC2)C(=O)c2ccccc21 [1-(3-chloro-1,4-dioxo-2-naphthalenyl)-4-piperidinecarboxylic acid]",IC50,,13.5 µM
"COC(=O)C1CN(C#N)N(c2ccc(Cl)cc2)C12c1ccccc1-c1ccccc12 (stereo not drawn) [2'-(4-chlorophenyl)-1'-cyano-4'-spiro[fluorene-9,3'-pyrazolidine]carboxylic acid methyl ester]",IC50,,> 80 µM
"O=c1c2ccccc2nc2n1CCC2 [2,3-dihydropyrrolo[2,1-b]quinazolin-9(1H)-one]",IC50,,> 80 µM
"COC1=C(OC)C(=O)C(Sc2ccc3ccccc3c2)=CC1=O [2,3-dimethoxy-5-naphthalen-2-ylsulfanylcyclohexa-2,5-diene-1,4-dione]",IC50,,7.15 µM
"CCN(CC)Cc1cc(O)c(CN(CC)CC)cc1O [2,5-bis(diethylaminomethyl)benzene-1,4-diol]",IC50,[1],55.3 µM
"CN(C)Cc1cc(O)c(CN(C)C)cc1O [2,5-bis[(dimethylamino)methyl]benzene-1,4-diol]",IC50,,> 80 µM
"CC(C)(C=O)C1=CC(=O)c2ccccc2C1=O [2-(1,4-dioxo-2-naphthalenyl)-2-methylpropanal]",IC50,,> 80 µM
"O=C1C(N2CCOCC2)=C(n2nnc3ccccc32)C(=O)c2ccccc21 [2-(1-benzotriazolyl)-3-(4-morpholinyl)naphthalene-1,4-dione]",IC50,,7.58 µM
COc1ccc(NC(=O)Cc2c[nH]c3ccccc23)cc1S(=O)(=O)N1CCCCC1 [2-(1H-indol-3-yl)-N-(4-methoxy-3-piperidin-1-ylsulfonylphenyl)acetamide],IC50,,> 80 µM
O=C(NCCc1ccccc1)C(c1cccs1)N(C(=O)CCl)c1ccc(Cl)cc1 (stereo not drawn) [2-(4-chloro-N-(2-chloro-1-oxoethyl)anilino)-N-(2-phenylethyl)-2-thiophen-2-ylacetamide],IC50,,> 80 µM
Cc1nc([N+](=O)[O-])c(Br)n1CC(=O)c1ccc2ccccc2c1 [2-(5-bromanyl-2-methyl-4-nitro-imidazol-1-yl)-1-naphthalen-2-yl-ethanone],IC50,,> 80 µM
"Cc1ccc(SC2=C(N(C)C)C(=O)c3ccccc3C2=O)cc1 [2-(dimethylamino)-3-[(4-methylphenyl)thio]naphthalene-1,4-dione]",IC50,,19.7 µM
"Cc1ccc(C(=O)c2c(C)oc3c2C(=O)C(=O)c2ccccc2-3)cc1 [2-Methyl-3-(4-methyl-benzoyl)-naphtho[1,2-b]furan-4,5-dione]",IC50,[1],21.5 µM
"Cc1cc(C)c(S(=O)(=O)Nc2cc(SCC(=O)O)c(O)c3ccccc23)cc1C [2-[1-hydroxy-4-[(2,4,5-trimethylphenyl)sulfonylamino]naphthalen-2-yl]sulfanylacetic acid]",IC50,,14.2 µM
O=C(O)CSc1cc(NS(=O)(=O)c2cccc([N+](=O)[O-])c2)c2ccccc2c1O [2-[1-hydroxy-4-[(3-nitrophenyl)sulfonylamino]naphthalen-2-yl]sulfanylacetic acid],IC50,[1],29.4 µM
"O=C(CSc1nnc(CCCN2C(=O)c3cccc4cccc(c34)C2=O)n1-c1ccccc1)N1CCN(CCO)CC1 [2-[3-[5-[[2-[4-(2-hydroxyethyl)-1-piperazinyl]-2-oxoethyl]thio]-4-phenyl-1,2,4-triazol-3-yl]propyl]benzo[de]isoquinoline-1,3-dione]",IC50,,7.31 µM
"Cc1cccc(N2C(=O)NC(=O)C(=Cc3cc(C)n(-c4sc5c(c4C#N)CCCC5)c3C)C2=O)c1C [2-[3-[(E)-[1-(2,3-dimethylphenyl)-2,4,6-trioxo-1,3-diazinan-5-ylidene]methyl]-2,5-dimethylpyrrol-1-yl]-4,5,6,7-tetrahydro-1-benzothiophene-3-carbonitrile]",IC50,,> 80 µM
"Cc1ccc(C)c(S(=O)(=O)Nc2cc(SCC(=O)O)c(O)c3ccccc23)c1 [2-[4-[(2,5-dimethylphenyl)sulfonylamino]-1-hydroxynaphthalen-2-yl]sulfanylacetic acid]",IC50,,16.4 µM
O=C(O)CSc1cc(NS(=O)(=O)c2ccc(Cl)cc2)c2ccccc2c1O [2-[4-[(4-chlorophenyl)sulfonylamino]-1-hydroxynaphthalen-2-yl]sulfanylacetic acid],IC50,,16.7 µM
"O=C(O)COc1ccc(C=NNC(=O)c2ccc(-c3csc(Nc4ccc(Cl)cc4)n3)cc2)cc1 [2-[4-[[[4-[2-(4-chloroanilino)-1,3-thiazol-4-yl]benzoyl]hydrazinylidene]methyl]phenoxy]acetic acid]",IC50,,> 80 µM
"Cc1cc(C)n2cc(CSc3nnc(-c4ccccc4)c(-c4ccccc4)n3)nc2n1 [2-[(5,6-diphenyl-1,2,4-triazin-3-yl)sulfanylmethyl]-5,7-dimethyl-imidazo[1,2-a]pyrimidine]",IC50,,11.4 µM
"O=C(CSc1nnc(-c2cccnc2)[nH]1)Nc1ccnc2ccccc12 [2-[(5-pyridin-3-yl-1H-1,2,4-triazol-3-yl)sulfanyl]-N-quinolin-4-yl-ethanamide]",IC50,,11 µM
[H]/N=C(\N/C(=N/[H])NCCCCCCNC(=N)NC(=N)Nc1ccc(Cl)cc1)Nc1ccc(Cl)cc1 [2-[amino-[6-[[amino-[(E)-[amino-(4-chloroanilino)methylidene]amino]methylidene]amino]hexylimino]methyl]-1-(4-chlorophenyl)guanidine],IC50,,> 80 µM
"COc1cc(NC(=O)c2cnc(N)s2)cc(C(=O)Nc2cccc(C(F)(F)F)c2)c1 [2-amino-N-[3-methoxy-5-[[3-(trifluoromethyl)phenyl]carbamoyl]phenyl]-1,3-thiazole-5-carboxamide]",IC50,,> 80 µM
O=C(C1=C(c2ccccc2)C(=O)c2ccccc2C1=O)c1ccccc1 [2-benzoyl-3-phenylnaphthoquinone],IC50,,7.24 µM
"CCOc1ccc(-n2c(C)cc(C(=O)CCl)c2C)cc1 [2-chloranyl-1-[1-(4-ethoxyphenyl)-2,5-dimethyl-pyrrol-3-yl]ethanone]",IC50,,> 80 µM
"COc1ccc(-n2c(C)cc(C(=O)CCl)c2C)cc1 [2-chloranyl-1-[1-(4-methoxyphenyl)-2,5-dimethyl-pyrrol-3-yl]ethanone]",IC50,,> 80 µM
CC(=O)n1cc(N(C(=O)CCl)c2ccc([N+](=O)[O-])cc2)c2ccccc21 [2-chloranyl-N-(1-ethanoylindol-3-yl)-N-(4-nitrophenyl)ethanamide],IC50,,> 80 µM
"O=C1C(Cl)=C(Oc2ccccc2)C(=O)c2ccccc21 [2-chloro-3-phenoxynaphthalene-1,4-dione]",IC50,,10 µM
"O=C(O)c1cc(N2N=C(C(F)(F)F)/C(=C/C=C/c3ccco3)C2=O)ccc1Cl [2-chloro-5-[4-[3-(2-furyl)-2-propenylidene]-5-oxo-3-(trifluoromethyl)-4,5-dihydro-1H-pyrazol-1-yl]benzoic acid]",IC50,,> 80 µM
"CCn1cc(C(=O)NCc2ccc3c(c2)OCO3)c2cc(OC)c(OC)cc2c1=O [2-ethyl-1-keto-6,7-dimethoxy-N-piperonyl-isoquinoline-4-carboxamide]",IC50,,18.9 µM
"CCC1=NN2C(=N)/C(=C\c3ccc(OCc4cc(=O)n5nc(CC)sc5n4)c(OC)c3)C(=O)N=C2S1 [2-ethyl-7-({4-[(E)-(2-ethyl-5-imino-7-oxo-5H-[1,3,4]thiadiazolo[3,2-a]pyrimidin-6(7H)-ylidene)methyl]-2-methoxyphenoxy}methyl)-5H-[1,3,4]thiadiazolo[3,2-a]pyrimidin-5-one]",IC50,,> 80 µM
"Cc1oc2c(c1C(=O)c1ccccc1)C(=O)C(=O)c1ccccc1-2 [2-methyl-3-(phenylcarbonyl)benzo[g][1]benzofuran-4,5-dione]",IC50,[1],78.3 µM
"CC(C)(C)c1c(Cl)c(O)c(-c2ccccc2)c(=O)n1-c1ccccc1 [2-tert-butyl-3-chloranyl-6-oxidanyl-1,5-diphenyl-pyridin-4-one]",IC50,,> 80 µM
